Marks after values point to notes of the source that are not given here.
Key:
[1] = test system: chemically-induced benign skin papillomas; assay: PDT of chemically induced skin tumors; type: in vivo, SENCAR mice; conditions: 0.5 and 1.0 mg/kg i.p. in DPPC liposomes
Experimental: 6-week-old female SENCAR mice received a single topical application of 5 μg DMBA in 0.2 mL acetone on the dorsal skin as tumor initiator. One week later, the animals were started on twice-weekly topical applications of 1 μg TPA in 0.2 mL acetone as tumor promoter. All of the animals developed tumors at 12 weeks. Mice that developed 4-5 tumors per animal averaging 5-8 mm in diameter and 2-5 mm in thickness were used. Pc IV, entrapped in DPPC liposomes was administered intraperitoneally at doses of either 0.5 or 1.0 mg/kg and 24 hrs later the tumor area was illuminated with light from an argon pumped dye laser tuned at 675 nm for a total light dose of 135 j/cm^2 (75 mW/cm^2). All possible controls were included; either the animals were untreated, treated only with laser light or treated only with Pc IV alone.

[2] = Retention of Pc IV in tumor tissue (pharmacokinetic data); type: in vivo; conditions: after administration
RIF-1 tumors = assay: RIF-1 implanted tumors, PcIV followed by multiple exposures to light; type: in vivo, C3H/HeN mice
Experimental: To overcome the regrowth, RIF-1 tumors were implanted in C3H/HeN mice, and the mice were treated with PcIV followed by multiple exposures to light. For multiple exposures to light to be successful, the tumor tissue must retain sufficient levels of the photosensitizer over the exposure period.

[3] = test system: RIF-1 (radiation-induced fibrosarcoma) tumors; assay: PDT of RIF-1 implanted tumors; type: in vivo, C3H/HeN mice; set-up: key to Tumor Responses at 24 hours: complete: no evidence of any tumor mass in any animal; only the scar from the photodynamic therapy was evident.; near complete: evidence of any tumor mass in four or five animals; only some tumor mass in one or two animals.; substantial: a significant tumor shrinkage occurred in all animals. In some animals the tumor response was complete, yet in others the response was not complete.; moderate: some tumor shrinkage was evident in some animals. In animals with some tumor shrinkage, scar formation was evident.; slight: some tumor decrease occurred in one or two mice; conditions: for Tumor Responses at 24 hours / Doubling Time of Initial Tumor Volume after PDT: 1 mg/kg in corn oil, 675 nm; for Tumor Responses at 24 hours: 135 J/cm^2, light 24 h after dosing; for Doubling Time of Initial Tumor Volume after PDT: 135 J/cm^2, controls 4 days
[4] = test system: Chinese hamster V79-379 lung fibroblasts; assay: Uptake of phthalocyanines into V79 cells; conditions: for Uptake Into V79 Cells, 1 μM / Uptake Into V79 Cells, 4 μM: 18 hours; for n Moles/10^6 Cells/μM (composite uptake value): V79 cells, average of all data, asterisk: listed value is for 1 μM, average would be higher
In short: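 V79-379 cells were incubated with phthalocyanine for 18 h, typically at 1, 2 and/or 4 μM. Cells collected on filters were extracted into ethanol and absorbance read at the peak, usually 668 nm. Values are nmol per 10^6 cells, using ε 2.93×10^5.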

With CN(C)CCC[Si](C)(C)O[Si]1(O)n2c3c4ccccc4c2N=C2N=C(N=c4c5ccccc5c(n41)=NC1=NC(=N3)c3ccccc31)c1ccccc12 (stereo not shown) [Compound IV, HOSiPcOSi(CH3)2(CH2)3N(CH3)2] the “tumor volume after PDT” value ([1]; 675 nm 135 j/cm^2 24 hrs later) was “eventually decreased to 0 volume”, the tumor return ([1]; length of the study 34 days) was “did not return for the length of the study” and the “retention in tumor tissue” value [2] was “retained in tumor tissue even after 7 days”. The “% of Mice Surviving” value (RIF-1 tumors; 1 mg/kg in DPPC liposomes, 30 days, day of exposure 2) was 100%, the “% of Mice Surviving” value (RIF-1 tumors; 1 mg/kg in DPPC liposomes, 30 days, days of exposure 2, 3, 4, 5, and 6) was 0% and the “% of Mice Surviving” value (RIF-1 tumors; 1 mg/kg in DPPC liposomes, 30 days, days of exposure 2, 3, and 4) was 0%. The “% of Mice Surviving” value (RIF-1 tumors; 1 mg/kg in DPPC liposomes, 30 days, days of exposure 2-6) was 0%, the “% of Mice Surviving” value (RIF-1 tumors; 1 mg/kg in DPPC liposomes, 30 days, days of exposure 2 and 3) was 100% and the “% of Mice Surviving” value (RIF-1 tumors; 1 mg/kg in DPPC liposomes, 30 days, days of exposure 2 and 7) was 100%. For the same compound, the “% of Mice Surviving” value (RIF-1 tumors; 1 mg/kg in DPPC liposomes, 120 days, days of exposure 2, 3, 4, 5, and 6) was 0%, the “% of Mice Surviving” value (RIF-1 tumors; 1 mg/kg in DPPC liposomes, 120 days, days of exposure 2, 3, and 4) was 0% and the “% of Mice Surviving” value (RIF-1 tumors; 1 mg/kg in DPPC liposomes, 120 days, days of exposure 2-6) was 0%. The “% of Mice Surviving” value (RIF-1 tumors; 1 mg/kg in corn oil, 15 days, day of exposure 2) was 100%, the “% of Mice Surviving” value (RIF-1 tumors; 1 mg/kg in corn oil, 15 days, days of exposure 2, 3, 4, 5, and 6) was 100% and the “% of Mice Surviving” value (RIF-1 tumors; 1 mg/kg in corn oil, 15 days, days of exposure 2, 3, and 4) was 100%. For the same compound, the “% of Mice Surviving” value (RIF-1 tumors; 1 mg/kg in corn oil, 15 days, days of exposure 2-6) was 100%, the “% of Mice Surviving” value (RIF-1 tumors; 1 mg/kg in corn oil, 15 days, days of exposure 2 and 3) was 100% and the “% of Mice Surviving” value (RIF-1 tumors; 1 mg/kg in corn oil, 15 days, days of exposure 2 and 7) was 100%. For the same compound, the “tumor regrowth at sacrifice” value (RIF-1 tumors; DPPC liposomes, three to five irradiations, 300 days after the light treatment) was “no evidence of tumor regrowth”, the tumor cure (RIF-1 tumors; entrapped in DPPC liposomes, mice irradiated three, four or five times at an interval of 24 hours) was “complete tumor cure” and the tumor regrowth (RIF-1 tumors; given in corn oil, all the multiple exposure protocols) was “regrowth of tumors was evident 15 days after photodynamic therapy”. For the same compound, the “Tumor Responses at 24 hours” value [3] was “near complete”, the “Doubling Time of Initial Tumor Volume after PDT” value (“Doubling Time” for short) [3] was 16 days and the “Histological examination of treated tumors” value ([3]; RIF-1 tumors after PDT) was “presence of apoptotic bodies in the tumor”.
For CN(C)CCC[Si](C)(C)O[Si]1(O[Si](C)(C)CCCN(C)C)n2c3c4ccccc4c2N=C2N=C(N=c4c5ccccc5c(n41)=NC1=NC(=N3)c3ccccc31)c1ccccc12 [Compound XII, SiPc[OSi(CH3)2(CH2)3N(CH3)2]2], the “Tumor Responses at 24 hours” value [3] was “complete”, the “Doubling Time” value [3] was 20 days and the “Uptake Into V79 Cells, 1 μM” value [4] was 2.1 ± 1.2 n Moles/10^6 cells. The “Uptake Into V79 Cells, 4 μM” value [4] was 4.6 ± 1.5 n Moles/10^6 cells and the “n Moles/10^6 Cells/μM (composite uptake value)” value [4] was 1.6 n Moles/10^6 Cells/μM.
In the case of CCN(CCC[Si](C)(C)O[Si]1(O[Si](C)(C)CCCN(CC)CCN(C)C)n2c3c4ccccc4c2N=C2N=C(N=c4c5ccccc5c(n41)=NC1=NC(=N3)c3ccccc31)c1ccccc12)CCN(C)C [Compound XVIII, SiPc[OSi(CH3)2(CH2)3N(CH2CH3)(CH2)2N(CH3)2]2], the “Tumor Responses at 24 hours” value [3] is reported as “near complete”, the “Doubling Time” value [3] is reported as 12 days and the “Uptake Into V79 Cells, 1 μM” value [4] is reported as 0.3 ± 0.1 n Moles/10^6 cells. For the same compound, the “Uptake Into V79 Cells, 4 μM” value [4] was 3.6 ± 0.6 n Moles/10^6 cells and the “n Moles/10^6 Cells/μM (composite uptake value)” value [4] was 0.3* n Moles/10^6 Cells/μM.

— patent publication US8211883B2, “Topical delivery of phthalocyanines” (priority 2004, dated 2012)
